This note sets out measurements from patent US20240100178A1, “EGFR TARGETING PEPTIDE CONJUGATE” (Chapman University, priority 2022, published 2024).

Where a SMILES comes first, the peptide text is derived from it. The star is where a group is joined. X1 = COc1cccc2c1C(=O)c1c(O)c3c(c(O)c1C2=O)C[C@@](O)(C(=O)CO)C[C@@H]3O[C@H]1C[C@H](NC(=O)C2CCC(CN3C(=O)CC(*)C3=O)CC2)[C@H](O)[C@H](C)O1

The subject of data set [1] is MDA-MB-468. Kind of data set: Cytotoxicity MTT/MTS assay, MDA-MB-468. It counts as cell-based. Conditions: MDA-MB-468 (TNBC) cells. From the text:
(§1) FIG. 4A-C depicts the cytotoxicity of PDoxC, obtained by […], for three cell lines (MDA-MB-231 [FIG. 4A], MDA-MB-468 [FIG. 4B], and MCF-10A [FIG. 4C]). Cell viability is plotted against drug concentration (PDoxC or Dox) to obtain IC50 values. Each experimental point was done in duplicates or triplicates and the experiment was repeated once.
(§2) Next, the cytotoxicity of the peptide 31 PDoxC was compared to the DOX (free drug) using MTS assay (FIG. 4A-C). Three cell lines were used, two TNBC cell lines (MDA-MB-231 and MDA-MB-468) and one non-cancerous mammary epithelial MCF-10A cell line. […] This peptide 31 PDoxC is very promising as this level of selectivity has never been observed with previously reported peptide-drug conjugates.
For orientation: Tetrazolium dyes change colour on reduction, which living cells bring about.

The subject of data set [2] is MCF-10A. Kind of data set: Cytotoxicity MTT/MTS assay, MCF-10A. Conditions: MCF-10A non-cancerous mammary epithelial cells; highest tested concentration 25 μM. It counts as cell-based.
Source text: as §1, §2

A short description of data set [3]: Stability of PDoxC in human serum at 37° C. (RP-HPLC). To be noted: HPLC peak AUC. It counts as in vitro ADME. The method, then:
(§3) FIG. 3 depicts the stability of the PDoxC in the presence of human or mouse serum at 37° C. The PDoxC was incubated with human or mouse serum and aliquots were removed at different time intervals for HPLC analysis. The AUC for PDoxC peak was used to calculate the percent intact at different time points.
(§4) The stability of the peptide 31 PDoxC was evaluated by incubating it with human or mouse serum at 37° C. (FIG. 3). Aliquots were removed at regular intervals to analyze the PDoxC using RP-HPLC.

A short description of data set [4]: Stability of PDoxC in mouse serum at 37° C. (RP-HPLC). Conditions: HPLC peak AUC. It counts as in vitro ADME. On the procedure:
as §3, §4

The subject of data set [5] is MDA-MB-231. Put plainly: Cytotoxicity MTT/MTS assay, MDA-MB-231. Format: cell-based. To be noted: MDA-MB-231 (TNBC) cells.
Source text: as §1, §2

For data set [6], the system named is TNBC cells (MDA-MB-468, 231, and 436). Kind of data set: SPOT peptide array library screen for binding to TNBC cells versus normal breast cells. It counts as cell-based. To be noted: peptide array incubated with TNBC cells (MDA-MB-468, 231, 436) or normal breast cells (MCF-10A, 12A); relative to lead GE11. On the procedure: A library of 30 peptide sequences (in duplicates, total 60 peptides) was synthesized in an array format on functionalized cellulose membrane using SPOT synthesis. The peptide library was screened for identifying EGFR binding peptide in TNBC cells by incubating the library with TNBC cells (MDA-MB-468, 231, and 436) or normal breast (MCF-10A and 12A) cells.

Data set [7] can be described thus: Stability of peptide GE11 in human serum at 37° C. (RP-HPLC). Format: in vitro ADME. The method, then: Peptide was incubated with human serum at 37° C., and aliquots were removed at different time intervals for HPLC analysis.
Peptides show low proteolytic stability when administered systemically and must be stabilized for clinical application. […] The three N-terminal amino acids (1Y, 2H, 3W) were cleaved sequentially by proteolysis, giving three fragments (A, B, and C, Table 2)) that appear in the HPLC chromatograms. […] Therefore, blocking the N-terminus of the peptide with a chemotherapeutic drug yields a stable conjugate.

Data set [8] has as its system EGFR expressing TNBC cells (MDA-MB-231 and MDA-MB-468). Kind of data set: Peptide uptake by EGFR expressing TNBC cells. Format: cell-based. From the text: (§5) The specific binding and uptake of peptide 22 (FITC labeled peptide) by EGFR in TNBC cells was confirmed by competition assay using flow cytometry.
In data set [9] the test system is noncancerous mammary epithelial cells (MCF-10A and MCF12A). Kind of data set: Peptide uptake by noncancerous mammary epithelial cells. It counts as cell-based.
Data set [10] relates to EGFR in MDA-MB-231 cells. Put plainly: EGF competition assay of FITC labeled peptide uptake by flow cytometry. Format: cell-based.
Source text: as §5
For orientation: In flow cytometry, cells or beads pass a laser one at a time.

The target in data set [11] is T1, epidermal growth factor receptor (EGFR) on TNBC cells (UniProt P00533 25-1210, limits assumed).
T1 construct: whole, on cells; also called ErbB1
Put plainly: SPOT peptide array on cellulose membrane incubated with TNBC cells (MDA-MB-468, 231, 436) or normal breast cells.

As to `COc1cccc2c1C(=O)c1c(O)c3c(c(O)c1C2=O)C[C@@](O)(C(=O)CO)C[C@@H]3O[C@H]1C[C@H](N)[C@H](O)[C@H](C)O1` [Free Dox, doxorubicin, reference compound], the results for the IC50 in data set [1] and in data set [2] were 570 nM and 1410 nM, respectively.
Take `CC[C@H](C)[C@H](NC(=O)[C@@H](NC(=O)[C@H](CCCNC(=N)N)NC(=O)[C@H](CCC(=O)O)NC(=O)[C@@H]1CCCN1C(=O)[C@@H](NC(=O)[C@H](Cc1ccc(O)cc1)NC(=O)CNC(=O)[C@H](Cc1ccc(O)cc1)NC(=O)[C@H](Cc1c[nH]c2ccccc12)NC(=O)[C@H](Cc1c[nH]cn1)NC(=O)[C@H](Cc1ccc(O)cc1)NC(=O)[C@@H](N)CSC1CC(=O)N(CC2CCC(C(=O)N[C@H]3C[C@H](O[C@H]4C[C@](O)(C(=O)CO)Cc5c(O)c6c(c(O)c54)C(=O)c4c(OC)cccc4C6=O)O[C@@H](C)[C@H]3O)CC2)C1=O)[C@@H](C)O)C(C)C)C(=O)O` (some centres unmarked) [PDoxC] (H-C(X1)YHWYGYTPERVI-OH; N-terminus and C-terminus assumed): the half-life in data set [3] is 12.7 h; in data set [4], 4 h. Also, the results for the IC50 in [5] and in [1] were 2370 ± 550 nM and 2750 ± 570 nM, respectively. Also, in data set [2], the “IC50 ± SD” value is “no toxicity”.
On to YHWYGYTPKNVI [Peptide 26], for which the “specific affinity for TNBC cells” value in data set [6] is “higher specific affinity”.
For `CC[C@H](C)[C@H](NC(=O)[C@@H](NC(=O)[C@H](CC(N)=O)NC(=O)[C@H](CCC(N)=O)NC(=O)[C@@H]1CCCN1C(=O)[C@@H](NC(=O)[C@H](Cc1ccc(O)cc1)NC(=O)CNC(=O)[C@H](Cc1ccc(O)cc1)NC(=O)[C@H](Cc1c[nH]c2ccccc12)NC(=O)[C@H](Cc1c[nH]cn1)NC(=O)[C@@H](N)Cc1ccc(O)cc1)[C@@H](C)O)C(C)C)C(=O)O` [GE11], the “% Intact GE11” value is recorded as 100% in data set [7] (0 h) and 2% in [7] (7 h). The amount remaining at 1 h in data set [7] (1 h) was found to be 49%. In [7] (3 h), this molecule displayed a share remaining at 3 h of 18%. For the same molecule, the share remaining at 7 h in [7] (7 h) is 2%.
In the case of “YHWYGYTPENVI [Peptide 22, used FITC labeled in uptake assays]”, in [6], the “specific affinity for TNBC cells” value was “higher specific affinity”. Moreover, in [8], the “uptake by EGFR expressing TNBC cells compared to the lead GE11” value is reported as 47-123 fold. The “uptake by noncancerous mammary epithelial cells” value in data set [9] was “minimal uptake”. In addition, the “FITC-positive MDA-MB-231 cells” value in data set [10] (FITC labeled peptide alone, without excess EGF) turned out to be 99%; in [10] (FITC labeled peptide in the presence of excess EGF protein), 2%.
For the molecule YHWYGYTPQKVI [Peptide 27], in [6], the “specific affinity for TNBC cells” value is given as “higher specific affinity”.
Turning to YHWYGYTPQDVI [Peptide 23], the “specific affinity for TNBC cells” value in data set [6] is listed as “higher specific affinity”.
With YHWYGYTPQDVI (made on a cellulose membrane by SPOT synthesis in the library screen) [peptide 23], the binding result in data set [11] is “binds”.
On the same count and under the same terms, the result for YHWYGYTPQKVI (made on a cellulose membrane by SPOT synthesis in the library screen, 12-mer derived from GE11 (N10K)) [peptide 27] reads “binds”; that for YHWYGYTPKNVI (made on a cellulose membrane by SPOT synthesis in the library screen) [peptide 26], “binds”.

For orientation: IC50 means the concentration needed to halve the response being measured. Lower therefore signals higher potency. The half-life is the time needed for the level to fall by half in the phase considered. Lower therefore signals rapid decline. For orientation: share remaining means the share of the starting amount still present when the sample was taken. A lower share remaining goes with a greater loss.
